# Assay results reported in US8163793B2, “Proline derivatives” (Hoffman-La Roche Inc., priority 2009, dated 2012).
# Structures can show the parent of a compound that is named as a salt.
# Columns and labels:
# Cathepsin S = Cathepsin S (UniProt P25774); experiment: Cathepsin enzyme inhibition assay (fluorogenic peptide substrate Z-Val-Val-Arg-AMC), Cathepsin S; format: biochemical, human and mouse; settings: enzyme 1 nM, substrate 20 μM, pH 6.5; read-out: CatS IC50
# In short: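 Human or mouse cathepsin S (1 nM) was run in 100 mM potassium phosphate pH 6.5 with 5 mM EDTA, 0.001% Triton X-100 and 5 mM DTT. The rise in AMC fluorescence from cleavage was measured, and IC50 values were calculated by standard methods and expressed in μM.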
# Cat L = Cat L (UniProt P07711); experiment: Cathepsin enzyme inhibition assay (fluorogenic peptide substrate Z-Val-Val-Arg-AMC), Cathepsin L; format: biochemical, human and mouse; settings: enzyme 1 nM, substrate 20 μM, pH 6.5; read-out: CatL IC50
# In short: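 Cathepsin L at 1 nM was mixed with compound, then started with 20 μM Z-Val-Val-Arg-AMC in pH 6.5 potassium phosphate with EDTA, Triton X-100 and 5 mM DTT. AMC fluorescence (ex 360/em 465 nm) was followed over 20 min. IC50 is given in μM.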
Structure (SMILES),IC50 (Cathepsin S) [nM],IC50 (Cat L) [nM]
"N#CC1(NC(=O)[C@@H]2C[C@@H](S(=O)(=O)c3ccccc3Cl)CN2C(=O)C2(c3ccc(Cl)cc3)CCC2)CC1 [Example 283, (2S,4R)-4-(2-Chloro-benzenesulfonyl)-1-[1-(4-chloro-phenyl)-cyclobutanecarbonyl]-pyrrolidine-2-carboxylic acid (1-cyano-cyclopropyl)-amide]",0.12,24
"CC(C)(C)OC(=O)N1C[C@H](S(=O)(=O)c2ccccc2CO)C[C@H]1C(=O)NC1(C#N)CC1 [Example 1, (2S,4R)-2-(1-Cyano-cyclopropylcarbamoyl)-4-(2-hydroxymethyl-benzenesulfonyl)-pyrrolidine-1-carboxylic acid tert-butyl ester]",15,≥ 25000
"Cc1cc(N2C[C@H](S(=O)(=O)c3ccc(OCC(F)(F)F)cc3Cl)C[C@H]2C(=O)NC2(C#N)CC2)n(C2CCOCC2)n1 [Example 482, (2S,4R)-4-[2-Chloro-4-(2,2,2-trifluoro-ethoxy)-benzenesulfonyl]-1-[5-methyl-2-(tetrahydro-pyran-4-yl)-2H-pyrazol-3-yl]-pyrrolidine-2-carboxylic acid (1-cyano-cyclopropyl)-amide]",0.765,2710
"N#CC1(NC(=O)[C@@H]2C[C@@H](S(=O)(=O)c3ccc(-n4cccn4)cc3Cl)CN2C(=O)C2(c3ccc(Cl)nc3)CC2)CC1 [Example 380, (2S,4R)-4-(2-Chloro-4-pyrazol-1-yl-benzenesulfonyl)-1-[1-(6-chloro-pyridin-3-yl)-cyclopropanecarbonyl]-pyrrolidine-2-carboxylic acid (1-cyano-cyclopropyl)-amide]",0.05,130
"COC(=O)c1ccc(C(=O)N2C[C@H](S(=O)(=O)c3ccccc3C(F)(F)F)C[C@H]2C(=O)NCC#N)cc1 [Example 137, 4-[(2S,4R)-2-(Cyanomethyl-carbamoyl)-4-(2-trifluoromethyl-benzenesulfonyl)-pyrrolidine-1-carbonyl]-benzoic acid methyl ester]",1,≥ 25000
"CC(C)(C)C(=O)N1C[C@H](S(=O)(=O)c2ccccc2Cl)C[C@H]1C(=O)NC1(C#N)CC1 [Example 217, (2S,4R)-4-(2-Chloro-benzenesulfonyl)-1-(2,2-dimethyl-propionyl)-pyrrolidine-2-carboxylic Acid (1-cyano-cyclopropyl)-amide]",0.7,14000
"CN1C[C@H](S(=O)(=O)c2ccccc2Cl)C[C@H]1C(=O)N(C)C1(C#N)CC1 [Example 94, (2S,4R)-4-(2-Chloro-benzenesulfonyl)-1-methyl-pyrrolidine-2-carboxylic acid (1-cyano-cyclopropyl)-methyl-amide Formiate]",945,40000

# Continued by falling IC50 (Cathepsin S), values first:
IC50 (Cathepsin S) [nM],IC50 (Cat L) [nM],Structure (SMILES)
46.5,≥ 25000,"N#CC1(NC(=O)[C@@H]2C[C@@H](S(=O)(=O)c3ccccc3OC(F)(F)F)CN2)CC1 [Example 13, (2S,4R)-4-(2-Trifluoromethoxy-benzenesulfonyl)-pyrrolidine-2-carboxylic acid (1-cyano-cyclopropyl)-amide Hydrochloride]"
12.5,≥ 25000,"CC(C)(C)OC(=O)N1C[C@H](S(=O)(=O)c2ccc(F)cc2Cl)C[C@H]1C(=O)NC1(C#N)CC1 [Example 124, (2S,4R)-4-(2-Chloro-4-fluoro-benzenesulfonyl)-2-(1-cyano-cyclopropylcarbamoyl)-pyrrolidine-1-carboxylic acid tert.-butyl ester]"
0.44,9670,"C[C@H](Oc1ccc(S(=O)(=O)[C@@H]2C[C@@H](C(=O)NC3(C#N)CC3)N(C(=O)C3(C(F)(F)F)CC3)C2)c(Cl)c1)C(F)(F)F [Example 183, (2S,4R)-4-[2-Chloro-4-((S)-2,2,2-trifluoro-1-methyl-ethoxy)-benzenesulfonyl]-1-(1-trifluoromethyl-cyclopropanecarbonyl)-pyrrolidine-2-carboxylic acid (1-cyano-cyclopropyl)-amide]"
0.385,3440,N#CC1(NC(=O)[C@@H]2C[C@@H](S(=O)(=O)c3ccc(OCC(F)(F)F)cc3Cl)CN2C(=O)C2CC2c2ccccc2)CC1 (stereo partly shown) [Example 247]
